{"source": "paper PMC6281186", "about": "“Bioinformatics: A rational combine approach used for the identification and in-vitro activity evaluation of potent β-Glucuronidase inhibitors” (PLoS ONE, 2018)", "biological_target": "T1, β-glucuronidase enzyme (Escherichia coli, UniProt P05804)", "T1 construct": "purchased Sigma Aldrich G7396-25KU", "T1 sequence (P05804 whole entry)": "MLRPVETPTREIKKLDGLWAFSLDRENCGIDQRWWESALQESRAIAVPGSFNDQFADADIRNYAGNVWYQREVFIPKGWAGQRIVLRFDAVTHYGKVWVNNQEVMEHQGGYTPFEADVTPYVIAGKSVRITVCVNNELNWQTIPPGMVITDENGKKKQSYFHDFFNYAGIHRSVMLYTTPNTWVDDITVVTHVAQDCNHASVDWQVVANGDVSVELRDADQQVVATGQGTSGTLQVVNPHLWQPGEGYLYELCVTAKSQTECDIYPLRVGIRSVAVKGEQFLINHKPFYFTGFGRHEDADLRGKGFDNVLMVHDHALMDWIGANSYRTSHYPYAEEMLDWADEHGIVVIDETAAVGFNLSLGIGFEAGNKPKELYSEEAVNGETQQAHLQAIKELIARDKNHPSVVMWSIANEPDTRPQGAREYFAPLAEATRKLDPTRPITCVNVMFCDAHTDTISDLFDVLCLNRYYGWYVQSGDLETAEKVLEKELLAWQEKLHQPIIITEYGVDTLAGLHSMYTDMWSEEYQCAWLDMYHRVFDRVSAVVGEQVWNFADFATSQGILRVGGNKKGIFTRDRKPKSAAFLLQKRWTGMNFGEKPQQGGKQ", "assay": "β-Glucuronidase inhibition assay (spectrophotometric, p-nitrophenyl-β-D-glucuronide)", "type": "biochemical", "protocol": "β-Glucuronidase inhibitory activity was determined with the help of spectrophotometric method by measuring the absorbance at 405 nm of p-nitrophenol formed from the substrate (p-nitrophenyl-β-D-glucuronide, N1627-250 mg, Sigma Aldrich). The total reaction volume was 250 μL. The compound dissolved in DMSO (100%), which becomes 2% in the ultimate assay (250 μL) and the similar conditions were used for standard (D-saccharic acid 1, 4-lactone, Sigma Aldrich). The reaction mixture contained 185 μL of 0.1 M acetate buffer, 5 μL of test compound solution, 10 μL of (1U) enzyme solution (G7396-25KU, Sigma Aldrich) was incubated at 37°C for 30 min. The plates were read on a multiplate reader (SpectraMax plus 384) at 405 nm after the addition of 50 μL of 0.4 mM p-nitrophenyl-β-D-glucuronide. All assays were performed in triplicate. IC50values were calculated by using EZ-Fit software (Perrella Scientific Inc., Amherst, MA, U.S.A.). These values are the mean of three independent readings^ [23]"}
{"smiles": "O=C1OC(C(O)C(=O)O)C(O)C1O", "note": "[D-saccharic acid 1,4-lactone]", "values": [{"measurement": "% Inhibition", "setting": "Conc. 200 μM", "result": 89.4, "unit": "%"}, {"measurement": "IC50", "setting": "β-glucuronidase inhibition, mean of three readings, read-out: IC50 μM±SEM", "result": "45.8 ± 2.16", "unit": "µM"}]}
